# Measurements: patent US20260199362A1, “VITAMIN B2 FOR USE IN IMPROVING GUT HEALTH” (DSM IP Assets B.V., priority 2022, published 2026)
# Tested on: Lactobacillus rhamnosus GG (Lactobacillus rhamnosus DSM 32550)
# Assay: Short-term batch-fermentation colon model (M-SHIME) with qPCR of Lactobacillus rhamnosus GG level
# Format: cell-based
# Protocol: A short-term batch-fermentation experiment was carried out by ProDigest, consisting of a colonic incubation of a representative dose of a selected vitamin with a representative bacterial inoculum under simulated conditions for the proximal large intestine. In the current experiment, the bacterial inocula were derived from fresh fecal samples of six different healthy adult donors. […]
# In this study, the Lactobacillus rhamnosus GG equivalent Lactobacillus rhamnosus DSM 32550 (Biocare Copenhagen) was added to the colon model containing the donor samples, alone or in combination with vitamin B2 (see Table 1). After 48 h of incubation, the abundance of the added strain was analyzed using primers that are specific for Lactobacillus rhamnosus GG and its equivalent Lactobacillus rhamnosus DSM 32550. […]
# qPCR was performed on putative phage tail protein gene (NCBI reference NC_013198) to monitor the level of the supplemented probiotic Lactobacillus rhamnosus GG strain within the gut microbiome, as described previously (Brandt, Alatossava (2003)-Specific identification of certain probiotic Lactobacillus rhamnosus strains with PCR primers based on phage-related sequences). Samples were analyzed from the mucus environment following 48 h of incubation. […]
structure (smiles),measurement,setting,value
"Cc1cc2nc3c(=O)[nH]c(=O)nc-3n(C[C@H](O)[C@H](O)[C@H](O)CO)c2cc1C [vitamin B2, riboflavin]",copies of the Lactobacillus rhamnosus GG specific putative phage tail protein gene relative to control (Lactobacillus rhamnosus GG alone),"vitamin B2 0.01667 g/L co-supplemented with L. rhamnosus GG 1*10^9 CFU, mucus environment, 48 h colonic incubation, fecal inocula of six healthy human donors, average, qPCR",around three
same,"levels of Lactobacillus rhamnosus GG in the colon model, as compared to the respective control","vitamin B2 0.01667 g/L co-supplemented with L. rhamnosus GG, 48 h, six human donors, paired t-test, p<0.05",significantly increased
